Data taken from patent publication US8865894B2, “Oxazolidin-2-one compounds and uses thereof” (Novartis AG, priority 2012, dated 2014).
Like-named read-outs stand apart in the source and are kept apart here.

What was measured:
Format in all cases: cell-based
[1] = target: T1, human PI3Kalpha p110 catalytic subunit (Rat-1 pBABEpuro Myr-HA-hp110alpha) (Homo sapiens, UniProt P42336); assay: Cellular assay PI3Kalpha (p-Akt(S473) SureFire, Rat-1_PI3Kalpha cells); conditions: 1 h compound treatment, read-out: Rat1-PI3Ka/ IC50
T1 construct: Myr (myristoylation signal) (N); HA (N); expressed in transfected cells; host or cells: Rat-1
From the text: (§1) AlphaScreen (Amplified Luminescent Proximity Homogeneous Assay, ALPHA, Perkin Elmer) is a non-radioactive bead-based proximity assay technology to study biomolecular interactions in a homogenous microtiter plate format. The brand name SureFire denotes AlphaScreen assays that are adapted to quantify the phosphorylation of endogenous cellular proteins in cell lysates, by using matched antibody pairs, which consist of an anti-phospho-kinase and an anti-kinase antibody. The assay allows characterization of kinase signaling in cells as well as measurement of kinase inhibitor effects. The AlphaScreen technology provides several advantages over standard assay techniques such as ELISA, as it avoids time-consuming washing procedures and reduces plate handling. Furthermore, it is miniaturizable at least to a 384-well format and provides sensitivity down to the femtomolar range, dependent on the affinity of the antibodies included in the individual AlphaScreen SureFire assay kit. High sensitivity is reached by an intrinsic amplification mechanism, which involves production of singlet oxygen molecules. SureFire assay kits are commercially available for specific targets and include pairs of validated antibodies (PerkinElmer). This report describes common procedures applied for AlphaScreen SureFire assays and respective semi-automated steps for routine kinase inhibitor profiling in cell-based assays.
(§2) The Rat-1 cell lines stably overexpressing activated PI3K class I isoforms Rat-1 pBABEpuro Myr-HA-hp110 delta (Rat-1_PI3Kdelta) and Rat-1 pBABEpuro Myr-HA-hp110alpha (Rat-1_PI3Kalpha) and Rat-1 pBABEpuro Myr-HA-hp110 beta (Rat-1_PI3beta) were prepared as described (Maira S M, Stauffer F, Brueggen J, Furet P, Schnell C, Fritsch C, Brachmann S, Chène P, de Pover A, Schoemaker K, Fabbro D, Gabriel D, Simonen M, Murphy L, Finan P, Sellers W, García-Echeverría C (2008), Mol Cancer Ther. 7:1851-63 and Maira S M, Pecchi S, Brueggen J, Huh K, Schnell C, Fritsch C, Nagel T, Wiesmann M, Brachmann S, Dorsch M, Chène P, Schoemaker K, De Pover A, Menezes D, Fabbro D, Sellers W, García-Echeverría C, Voliva C F (2011), Mol. Cancer Ther., accepted). All cell lines were cultivated in complete growth medium (DMEM high glucose, 10% (v/v) fetal bovine serum, 1% (v/v) MEM NEAA, 10 mM HEPES, 2 mM L-glutamine, puromycin (10 μg/mL for Rat-1_PI3Kdelta and Rat-1_PI3Kalpha, 4 ug/mL for Rat-1_PI3beta), 1% (v/v) Pen/Strep) to 90% confluency at 37° C./5% CO2/90% humidity in a humidified CO2 incubator and were split twice a week.
(§3) The following materials were used for p-AKT(S473) detection in Rat-1 cell lysates: Dulbecco's modified Eagle's medium (DMEM) high glucose (Gibco Invitrogen, Basel, Switzerland, Cat. No. 41965), Heat Inactivated Fetal Bovine Serum, Qualified (HI FBS; Gibco Invitrogen, Basel, Switzerland, Lot. No. 16140), MEM non essential amino acids (NEAA; Gibco Invitrogen, Basel, Switzerland, Cat. No. 11140), HEPES (Gibco Invitrogen, Basel, Switzerland, Cat. No. 15630), Penicillin/Streptomycin (Pen/Strep, 100×; Gibco Invitrogen, Basel, Switzerland, Cat. No. 15140-122), L-Glutamine (Gibco Invitrogen, Basel, Switzerland, Cat. No. 25030), Puromycin (Sigma Aldrich, Buchs, Switzerland, Cat. No. P9620), DMSO (MERCK, Dietikon, Switzerland, Cat. No. 8.02912.2500), H2O, MilliQ-H2O unless otherwise stated (MILLIPORE QGARDOOR1, Millipore, Zug, Switzerland), Bovine serum albumine (BSA; Sigma Aldrich, Buchs, Switzerland Cat. No. A8412), SureFire p-Akt 1/2 (Ser473) Assay Kit (PerkinElmer, Schwerzenbach, Switzerland, Cat. No. TGRAS50K).
(§4) The p-Akt(S473) SureFire assay measures the phosphorylation of endogenous cellular Akt 1/2 at Ser473 in cell lysates. Using Rat-1 cells stably expressing myr-HA-tagged versions of the human PI3Kdelta, PI3Kalpha, or PI3Kbeta p110 catalytic subunit isoforms, the assay was developed as a two-plate protocol in a 384-well format.

[2] = target: T2, human PI3Kbeta p110 catalytic subunit (Rat-1 pBABEpuro Myr-HA-hp110 beta) (Homo sapiens, UniProt P42338); assay: Cellular assay PI3Kbeta (p-Akt(S473) SureFire, Rat-1_PI3beta cells)
T2 construct: Myr (myristoylation signal) (N); HA (N); expressed in transfected cells; host or cells: Rat-1
From the text: as §1, §2, §3, §4

A2058 cells = assay: Cell cycle G2/M arrest Cytospin assay to detect tubulin binding (off-target); set-up: key: 0=no condensed DNA observed (indicating no off target activity); 1=(indicating weak off target activity); 2=(indicating medium off target activity); 3=large amount of condensed DNA observed (indicating strong off-target activity); conditions: 5 μM test item, 24 hours
Protocol: The off-target effect (evidence of tubulin binding) was measured as follows.
Cell cycle G2/M arrest Cytospin assay to detect tubulin binding (off-target) binding activities of MAPP derivatives: 5×10^5 cells A2058 cells were plated in 6-well cluster, with 2 mL of DMEM (high Glucose containing 1% sodium pyruvate, 1% glutamin and 10% FCS). 18 hours later, the test items were added at a concentration of 5 μM (spiking 1 μL of a 10 mM solution of the test item). 24 hours later, the cells were trypsinized and transferred into a 15 mL conical tube. Cells are then pelleted by centrifugation, and resuspended with PBS/0 (containing 10% FCS). Cells are counted with a CASY counter, and each samples equilibrated to 1×10^6 cells/mL. […] The staining was visually assessed for the presence of condensed DNA and given a score where 0=no condensed DNA observed (indicating no off target activity), 1=(indicating weak off target activity), 2=(indicating medium off target activity), 3=large amount of condensed DNA observed (indicating strong off-target activity).

[3] = target: T3, human PI3Kdelta p110 catalytic subunit (Rat-1 pBABEpuro Myr-HA-hp110 delta) (Homo sapiens, UniProt O00329); assay: Cellular assay PI3Kdelta (p-Akt(S473) SureFire, Rat-1_PI3Kdelta cells); conditions: 1 h compound treatment, read-out: Rat1-PI3Kd/ IC50
T3 construct: Myr (myristoylation signal) (N); HA (N); expressed in transfected cells; host or cells: Rat-1
From the text: as §1, §2, §3, §4

[4] = p-Akt(S473), 1 h compound treatment, read-out: Rat1-PI3Kb/ IC50

T2 sequence (P42338 whole entry): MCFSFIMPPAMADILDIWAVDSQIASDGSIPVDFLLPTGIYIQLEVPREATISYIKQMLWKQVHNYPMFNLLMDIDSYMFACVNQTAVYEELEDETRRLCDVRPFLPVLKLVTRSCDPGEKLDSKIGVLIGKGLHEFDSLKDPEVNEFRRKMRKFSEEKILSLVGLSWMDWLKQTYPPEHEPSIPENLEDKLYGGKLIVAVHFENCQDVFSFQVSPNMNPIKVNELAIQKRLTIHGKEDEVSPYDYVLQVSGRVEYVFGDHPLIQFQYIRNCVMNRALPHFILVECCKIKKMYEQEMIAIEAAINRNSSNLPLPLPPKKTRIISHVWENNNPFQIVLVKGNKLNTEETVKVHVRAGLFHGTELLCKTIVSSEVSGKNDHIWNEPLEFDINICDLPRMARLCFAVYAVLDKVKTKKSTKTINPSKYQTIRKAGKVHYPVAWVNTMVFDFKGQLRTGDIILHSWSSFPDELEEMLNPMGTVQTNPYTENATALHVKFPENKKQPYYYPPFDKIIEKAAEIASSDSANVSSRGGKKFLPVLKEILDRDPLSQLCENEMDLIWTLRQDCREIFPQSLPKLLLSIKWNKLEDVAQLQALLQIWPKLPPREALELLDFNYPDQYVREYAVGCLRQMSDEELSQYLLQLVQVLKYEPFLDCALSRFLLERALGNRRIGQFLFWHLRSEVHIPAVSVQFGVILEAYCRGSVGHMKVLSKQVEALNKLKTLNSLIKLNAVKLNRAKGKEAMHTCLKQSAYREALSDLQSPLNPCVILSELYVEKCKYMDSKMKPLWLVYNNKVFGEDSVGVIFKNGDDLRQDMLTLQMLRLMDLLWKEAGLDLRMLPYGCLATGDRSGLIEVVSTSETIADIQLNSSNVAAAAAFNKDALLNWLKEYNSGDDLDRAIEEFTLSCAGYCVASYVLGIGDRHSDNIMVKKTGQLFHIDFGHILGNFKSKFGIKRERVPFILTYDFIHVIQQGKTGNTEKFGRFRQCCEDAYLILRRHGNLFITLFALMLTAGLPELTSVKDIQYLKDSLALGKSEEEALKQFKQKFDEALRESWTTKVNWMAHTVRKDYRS
T2 sequence (Q63787 whole entry partner): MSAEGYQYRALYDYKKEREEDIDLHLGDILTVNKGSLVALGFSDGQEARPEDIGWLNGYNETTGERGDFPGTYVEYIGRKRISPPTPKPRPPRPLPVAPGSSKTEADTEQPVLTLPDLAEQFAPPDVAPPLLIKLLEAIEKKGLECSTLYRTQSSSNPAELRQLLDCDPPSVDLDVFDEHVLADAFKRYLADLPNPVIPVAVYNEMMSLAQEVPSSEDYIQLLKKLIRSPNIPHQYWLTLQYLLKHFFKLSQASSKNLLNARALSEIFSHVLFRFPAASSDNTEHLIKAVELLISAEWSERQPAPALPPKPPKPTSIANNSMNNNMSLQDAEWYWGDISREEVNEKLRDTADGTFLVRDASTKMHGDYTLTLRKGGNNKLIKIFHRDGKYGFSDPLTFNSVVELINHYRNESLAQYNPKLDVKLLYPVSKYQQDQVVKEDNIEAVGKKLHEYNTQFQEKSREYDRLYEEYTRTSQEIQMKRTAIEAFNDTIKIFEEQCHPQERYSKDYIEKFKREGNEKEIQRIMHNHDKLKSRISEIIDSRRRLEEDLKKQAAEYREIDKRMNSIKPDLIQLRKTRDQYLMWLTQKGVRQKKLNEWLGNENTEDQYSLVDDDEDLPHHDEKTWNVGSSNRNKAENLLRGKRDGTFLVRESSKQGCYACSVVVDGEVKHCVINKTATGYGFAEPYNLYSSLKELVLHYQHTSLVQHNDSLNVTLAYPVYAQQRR
T3 sequence (O00329 whole entry): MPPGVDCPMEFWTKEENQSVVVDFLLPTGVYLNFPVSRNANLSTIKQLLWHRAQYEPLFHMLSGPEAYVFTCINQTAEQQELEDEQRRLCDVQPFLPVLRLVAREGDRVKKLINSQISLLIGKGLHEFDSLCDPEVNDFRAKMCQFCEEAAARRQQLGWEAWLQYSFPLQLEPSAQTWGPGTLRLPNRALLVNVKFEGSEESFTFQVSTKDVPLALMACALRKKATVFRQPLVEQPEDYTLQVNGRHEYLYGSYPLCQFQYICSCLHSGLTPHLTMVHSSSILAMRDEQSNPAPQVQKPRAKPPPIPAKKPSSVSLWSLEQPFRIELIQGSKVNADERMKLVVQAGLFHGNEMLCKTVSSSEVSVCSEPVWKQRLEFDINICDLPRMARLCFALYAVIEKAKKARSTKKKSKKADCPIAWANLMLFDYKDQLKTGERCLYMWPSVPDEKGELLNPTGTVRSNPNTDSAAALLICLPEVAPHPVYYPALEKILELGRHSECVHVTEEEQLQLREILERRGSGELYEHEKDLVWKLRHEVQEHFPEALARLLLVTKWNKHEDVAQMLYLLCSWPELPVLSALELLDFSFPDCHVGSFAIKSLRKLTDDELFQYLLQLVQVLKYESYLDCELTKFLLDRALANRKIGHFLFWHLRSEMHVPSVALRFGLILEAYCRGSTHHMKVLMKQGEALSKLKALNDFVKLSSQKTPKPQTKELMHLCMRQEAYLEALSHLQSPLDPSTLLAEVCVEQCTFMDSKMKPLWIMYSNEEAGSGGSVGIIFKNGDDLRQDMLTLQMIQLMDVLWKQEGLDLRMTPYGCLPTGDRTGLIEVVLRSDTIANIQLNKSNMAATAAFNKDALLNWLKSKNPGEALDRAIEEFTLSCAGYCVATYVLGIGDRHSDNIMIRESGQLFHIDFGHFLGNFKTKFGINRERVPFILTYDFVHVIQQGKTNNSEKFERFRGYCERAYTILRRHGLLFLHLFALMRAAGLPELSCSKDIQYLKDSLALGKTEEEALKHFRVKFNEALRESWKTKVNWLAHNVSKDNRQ
T3 sequence (Q63787 whole entry partner): as the sequence (Q63787 whole entry partner) above
T1 sequence (P42336 whole entry): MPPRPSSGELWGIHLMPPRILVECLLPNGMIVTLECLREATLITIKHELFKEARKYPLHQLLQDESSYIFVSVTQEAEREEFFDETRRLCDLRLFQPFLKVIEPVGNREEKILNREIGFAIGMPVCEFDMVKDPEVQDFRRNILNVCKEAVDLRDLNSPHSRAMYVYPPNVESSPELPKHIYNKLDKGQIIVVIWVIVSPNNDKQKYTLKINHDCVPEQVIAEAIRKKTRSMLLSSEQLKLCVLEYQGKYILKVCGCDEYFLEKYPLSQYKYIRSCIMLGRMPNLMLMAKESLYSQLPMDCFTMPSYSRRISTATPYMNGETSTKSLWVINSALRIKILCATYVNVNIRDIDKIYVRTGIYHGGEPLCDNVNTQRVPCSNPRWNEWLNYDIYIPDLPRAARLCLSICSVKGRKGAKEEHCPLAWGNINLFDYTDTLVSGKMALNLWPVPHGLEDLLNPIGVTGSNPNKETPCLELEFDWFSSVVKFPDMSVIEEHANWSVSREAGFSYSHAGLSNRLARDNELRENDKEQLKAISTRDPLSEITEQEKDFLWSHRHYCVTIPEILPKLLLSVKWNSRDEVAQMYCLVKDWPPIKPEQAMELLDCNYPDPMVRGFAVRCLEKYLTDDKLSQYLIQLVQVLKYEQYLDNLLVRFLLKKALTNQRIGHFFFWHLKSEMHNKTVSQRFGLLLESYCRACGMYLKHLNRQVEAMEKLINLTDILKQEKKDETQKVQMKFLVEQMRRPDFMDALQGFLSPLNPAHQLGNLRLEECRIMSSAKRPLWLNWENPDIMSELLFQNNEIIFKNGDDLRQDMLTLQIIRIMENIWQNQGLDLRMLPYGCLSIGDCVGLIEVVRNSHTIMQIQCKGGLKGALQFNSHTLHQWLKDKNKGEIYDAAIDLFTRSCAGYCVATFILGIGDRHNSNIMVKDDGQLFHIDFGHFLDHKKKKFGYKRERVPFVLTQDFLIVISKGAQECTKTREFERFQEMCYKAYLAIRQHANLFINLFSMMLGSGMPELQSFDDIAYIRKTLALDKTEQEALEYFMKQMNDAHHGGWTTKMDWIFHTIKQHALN
T1 sequence (Q63787 whole entry partner): as the sequence (Q63787 whole entry partner) above

SMILES	IC50 [1]	IC50 [2, 4]	Score (condensed DNA, G2/M arrest; off-target tubulin binding) (A2058 cells)	IC50 [3]	IC50 ([2]; fourth measurement, outlier, read-out: Rat1-PI3Kb IC50, fourth measurement (footnote))
COC[C@H]1COC(=O)N1c1cc(-c2cnc(N)nc2C(F)(F)F)nc(N2CCOCC2)n1 [Example 5, (S)-3-(2′-Amino-2-morpholin-4-yl-4′-trifluoromethyl-[4,5′]bipyrimidinyl-6-yl)-4-methoxymethyl-oxazolidin-2-one]	93 nM	314 nM	0	23 nM	
C[C@H]1OC(=O)N(c2cc(-c3cnc(N)nc3C(F)(F)F)nc(N3CCOCC3)n2)[C@H]1CO [Example 18, (4S,5R)-3-(2′-Amino-2-morpholin-4-yl-4′-trifluoromethyl-[4,5′]bipyrimidinyl-6-yl)-4-hydroxymethyl-5-methyl-oxazolidin-2-one]	38 nM	88 nM	0	28 nM	
Nc1ncc(-c2cc(N3C(=O)O[C@H]4CCCC[C@@H]43)nc(N3CCOCC3)n2)c(C(F)(F)F)n1 [Example 4, (3aS,7aS)-3-(2′-Amino-2-morpholin-4-yl-4′-trifluoromethyl-[4,5′]bipyrimidinyl-6-yl)-hexahydro-benzooxazol-2-one]	31 nM	183 nM	0	13 nM	
Nc1ncc(-c2cc(N3C(=O)OC4C(O)CCC43)nc(N3CCOCC3)n2)c(C(F)(F)F)n1 (single isomer, unassigned) [Example 22A]	86 nM	60 nM		27 nM	
C[C@H]1OC(=O)N(c2cc(-c3cnc(N)nc3C(F)(F)F)nc(N3CCOCC3)n2)[C@H]1COC=O [Example 12, Formic acid (4S,5R)-3-(2′-amino-2-morpholin-4-yl-4′-trifluoromethyl-[4,5′]bipyrimidinyl-6-yl)-5-methyl-2-oxo-oxazolidin-4-ylmethyl ester]	113 nM	123 nM	0	92 nM	
C[C@H]1[C@@H](CCO)OC(=O)N1c1cc(-c2cnc(N)nc2C(F)(F)F)nc(N2CCOCC2)n1 [Example 23, (4S,5R)-3-(2′-Amino-2-morpholino-4′-(trifluoromethyl)-[4,5′-bipyrimidin]-6-yl)-5-(2-hydroxyethyl)-4-methyloxazolidin-2-one]	20 nM	27 nM	0	16 nM	
[2H]C1([2H])OC([2H])([2H])C([2H])([2H])N(c2nc(-c3cnc(N)nc3C(F)(F)F)cc(N3C(=O)O[C@H](C)[C@@H]3CO)n2)C1([2H])[2H] [Example 8]	81 nM	108 nM	0	54 nM	
CC1(C)OC(=O)N(c2cc(-c3cnc(N)nc3C(F)(F)F)nc(N3CCOCC3)n2)[C@H]1CO [Example 2, (S)-3-(2′-Amino-2-morpholin-4-yl-4′-trifluoromethyl-[4,5′]bipyrimidinyl-6-yl)-4-hydroxymethyl-5,5-dimethyl-oxazolidin-2-one]	134 nM	278 nM		81 nM	
C[C@@H]1OC(=O)N(c2cc(-c3cnc(N)nc3C(F)(F)F)nc(N3CCOCC3)n2)[C@H]1CO [Example 6]	94 nM	147 nM	0	37 nM	
C[C@H]1[C@H](CO)OC(=O)N1c1cc(-c2cnc(N)nc2C(F)(F)F)nc(N2CCOCC2)n1 [Example 15, (4S,5R)-3-(2′-Amino-2-morpholin-4-yl-4′-trifluoromethyl-[4,5′]bipyrimidinyl-6-yl)-5-hydroxymethyl-4-methyl-oxazolidin-2-one]	79 nM	114 nM	0	53 nM	
C[C@H]1COC(=O)N1c1cc(-c2cnc(N)nc2C(F)(F)F)nc(N2CCOCC2)n1 [Example 1, (S)-3-(2′-Amino-2-morpholin-4-yl-4′-trifluoromethyl-[4,5′]bipyrimidinyl-6-yl)-4-methyl-oxazolidin-2-one]	48 nM	65 nM	0	27 nM	3900 nM
C[C@H]1COCCN1c1nc(-c2cnc(N)nc2C(F)(F)F)cc(N2C(=O)OC[C@@H]2C)n1 [Example 13, (S)-3-[2′-Amino-2-((S)-3-methyl-morpholin-4-yl)-4′-trifluoromethyl-[4,5′]bipyrimidinyl-6-yl]-4-methyl-oxazolidin-2-one]	58 nM	240 nM	0	42 nM	
Nc1ncc(-c2cc(N3C[C@H](CO)OC3=O)nc(N3CCOCC3)n2)c(C(F)(F)F)n1 [Example 20, (R)-3-(2′-Amino-2-morpholin-4-yl-4′-trifluoromethyl-[4,5′]bipyrimidinyl-6-yl)-5-hydroxymethyl-oxazolidin-2-one]	158 nM	124 nM	1-2	111 nM	
Nc1ncc(-c2cc(N3C(=O)OC[C@@H]3CCO)nc(N3CCOCC3)n2)c(C(F)(F)F)n1 [Example 9, (S)-3-(2′-Amino-2-morpholin-4-yl-4′-trifluoromethyl-[4,5′]bipyrimidinyl-6-yl)-4-(2-hydroxy-ethyl)-oxazolidin-2-one]	147 nM	226 nM		78 nM	
C[C@H]1CN(c2cc(-c3cnc(N)nc3C(F)(F)F)nc(N3CCOCC3)n2)C(=O)O1 [Example 16, (S)-3-(2′-Amino-2-morpholin-4-yl-4′-trifluoromethyl-[4,5′]bipyrimidinyl-6-yl)-5-methyl-oxazolidin-2-one]	108 nM	160 nM	0	87 nM	
Nc1ncc(-c2cc(N3C(=O)OC4C(O)CCC43)nc(N3CCOCC3)n2)c(C(F)(F)F)n1 (single isomer, unassigned) [Example 22B]	148 nM	125 nM		5 nM	
